System: SARS-CoV-2 variants Alpha (B.1.1.7), Beta (B.1.351), Delta (B.617.2)
Format: cell-based
Conditions: Vero E6 and Caco-2 cells, 48 h

COc1nc(N)nc2c1ncn2[C@@H]1O[C@H](COP(=O)(N[C@@H](C)C(=O)OCC(C)(C)C)Oc2cccc3ccccc23)[C@@H](O)[C@@]1(C)O (stereo partly shown) [BMS-986094]
replication of panel of SARS-CoV-2 variant isolates (in words): suppressed the replication

Reference: publication PMC9333455, “Drug repurposing based on a quantum-inspired method versus classical fingerprinting uncovers potential antivirals against SARS-CoV-2” (PLoS Computational Biology, 2022)
